Assay results: PMC8221234 (Chemical biology & drug design, 2009)

Columns and labels:
[1] = system: eIF2α phosphorylation in NIH3T3 cells; assay: UV-induced eIF2α phosphorylation in NIH3T3 cells; format: cell-based; details: compared with MEFs, data not shown
[2] = system: eIF2α phosphorylation in NIH3T3 cells; details: cited from earlier work

For `Oc1c2ccccc2c2c3c(cccc13)N=N2` [SP600125], the “Effect on UV-induced eIF2α phosphorylation in NIH3T3 cells (qualitative)” value [1] is given as “does not prevent eIF2α phosphorylation” and the “Effect on eIF2α phosphorylation following UV irradiation (qualitative)” value [2] is given as “did not prevent the phosphorylation of eIF2α”.
